According to patent publication US20200239530A1, “COMPOUNDS AND METHODS OF MODULATING PROTEIN DEGRADATION” (Vividion Therapeutics, Inc., priority 2017, published 2020):

Key:
[1] = target: T1, PML Protein PML (Homo sapiens, UniProt P29590); experiment: Cysteine liganding, probe competition; format: binding
T1 construct: Cells were resuspended in cold PBS on ice and sonicated with a probe sonicator to achieve lysis; endogenous in cells
T1 sequence (P29590 1-882): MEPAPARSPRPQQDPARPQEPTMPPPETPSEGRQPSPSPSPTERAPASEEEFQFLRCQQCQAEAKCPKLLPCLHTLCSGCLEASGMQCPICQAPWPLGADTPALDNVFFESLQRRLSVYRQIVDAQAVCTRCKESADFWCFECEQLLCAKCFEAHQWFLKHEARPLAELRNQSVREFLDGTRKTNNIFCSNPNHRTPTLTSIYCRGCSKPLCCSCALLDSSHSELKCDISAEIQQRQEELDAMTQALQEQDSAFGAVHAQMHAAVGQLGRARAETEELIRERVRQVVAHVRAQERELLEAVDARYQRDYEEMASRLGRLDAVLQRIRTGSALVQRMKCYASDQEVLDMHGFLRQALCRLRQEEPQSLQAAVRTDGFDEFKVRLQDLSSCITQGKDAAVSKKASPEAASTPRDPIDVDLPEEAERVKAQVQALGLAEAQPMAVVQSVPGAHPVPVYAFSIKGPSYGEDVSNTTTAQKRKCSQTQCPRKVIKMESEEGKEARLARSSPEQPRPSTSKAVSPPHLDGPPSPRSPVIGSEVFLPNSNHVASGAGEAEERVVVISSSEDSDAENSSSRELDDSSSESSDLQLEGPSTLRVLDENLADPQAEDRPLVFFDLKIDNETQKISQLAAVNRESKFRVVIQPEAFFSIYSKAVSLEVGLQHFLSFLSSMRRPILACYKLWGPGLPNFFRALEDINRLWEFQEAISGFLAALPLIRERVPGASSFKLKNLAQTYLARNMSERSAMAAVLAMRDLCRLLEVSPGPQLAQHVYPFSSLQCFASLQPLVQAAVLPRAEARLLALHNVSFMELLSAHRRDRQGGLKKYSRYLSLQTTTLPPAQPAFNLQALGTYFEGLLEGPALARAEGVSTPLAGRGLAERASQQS
How it was run: (§1)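 Read-out is loss of desthiobiotin iodoacetamide labelling at cysteines, measured on streptavidin-enriched tryptic peptides. Compound preincubation ran 1 hr at 25° C in PBS lysate holding 5 mg/ml proteome before the probe was added.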

[2] = target: T2, UNC93B1 Protein unc-93 homolog B1 (Homo sapiens, UniProt Q9H1C4); experiment: Cysteine liganding, probe competition; format: binding
T2 construct: Cells were resuspended in cold PBS on ice and sonicated with a probe sonicator to achieve lysis; endogenous in cells
T2 sequence (Q9H1C4 1-597): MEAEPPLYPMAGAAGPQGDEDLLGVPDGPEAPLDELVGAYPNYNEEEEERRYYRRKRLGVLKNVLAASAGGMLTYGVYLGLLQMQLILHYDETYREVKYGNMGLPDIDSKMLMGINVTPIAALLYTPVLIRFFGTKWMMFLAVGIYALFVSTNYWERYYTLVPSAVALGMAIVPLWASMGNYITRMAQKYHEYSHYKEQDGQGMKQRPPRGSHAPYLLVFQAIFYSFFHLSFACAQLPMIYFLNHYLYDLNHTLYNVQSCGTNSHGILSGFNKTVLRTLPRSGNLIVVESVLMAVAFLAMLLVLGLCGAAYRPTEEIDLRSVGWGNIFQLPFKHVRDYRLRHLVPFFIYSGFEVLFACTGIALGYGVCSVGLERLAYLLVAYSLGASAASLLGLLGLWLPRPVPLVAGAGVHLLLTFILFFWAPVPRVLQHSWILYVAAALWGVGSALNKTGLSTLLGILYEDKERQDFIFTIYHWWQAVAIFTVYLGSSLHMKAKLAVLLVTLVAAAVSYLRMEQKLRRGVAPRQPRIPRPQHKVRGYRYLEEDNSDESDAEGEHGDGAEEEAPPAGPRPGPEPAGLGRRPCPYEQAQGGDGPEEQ
How it was run: as §1

Row | SMILES | Liganded ([1]; PML Res# 479, uniprot P29590) | Liganded ([1]; PML Res# 484, uniprot P29590) | Liganded ([2]; UNC93B1 Res# 583, uniprot Q9H1C4) | KB03_500 uM_percent_inhibition ([1]; UniProt P29590, 500 uM) | 100 Max ([2]; uniprot Q9H1C4) | 100 ave ([2]; uniprot Q9H1C4) | 500 ave ([2]; uniprot Q9H1C4) | 500 Max ([2]; uniprot Q9H1C4, in % (unit assumed))
1 | COc1ccc2c(c1)CCCN2C(=O)CCl [KB02] | YES | YES | YES |  |  |  |  | 
2 | O=C(CCl)Nc1cc(C(F)(F)F)cc(C(F)(F)F)c1 [KBO3] |  |  |  | 69% | 29.9385 | 13 | 70.38 | 72.3195
